Series [1] deals with MMP02 (GCD, recombinant gelatinase A catalytic domain) (Homo sapiens, UniProt P08253). The series can be described thus: Thiopeptolide assay, gelatinase A catalytic domain (GCD). The series is classed as biochemical. The settings on record: thiopeptolide substrate. The protocol:
(§1) IC50 values were determined using a thiopeptolide substrate, Ac-Pro-Leu-Gly-thioester-Leu-Leu-Gly-OEt (Ye Q.-Z., Johnson L. L., Hupe D. J., and Baragi V., “Purification and Characterization of the Human Stromelysin Catalytic Domain Expressed in Escherichia coli,” Biochemistry, 1992;31:11231-11235). MMP01, MMP07, MMP09, and MMP13 activity was assayed in a method similar to MMP02 and MMP03 (SCD and GCD). MMP01 and MMP09 can be obtained from Washington University School of Medicine, St. Louis, Mo. MMP07 can be obtained in accordance with the known procedure set forth by Ye Q-Z, Johnson L. L., and Baragi V., “Gene Syntheses and Expression in E. coli for PUMP, a Human Matrix Metalloproteinase” Biochem. and Biophys. Res. Comm., 1992;186:143-149. MMP13 can be obtained in accordance with the known procedure set forth by Freije J. M. P., et al., “Molecular Cloning and Expression of Collegenase-3, a Novel Human Matrix Metalloproteinase Produced by Breast Carcinomas” J. Bio. Chem., 1994;269:16766-16773.
(§2) Hydrolysis of the thiopeptolide substrate Ac-Pro-Leu-Gly-thioester-Leu-Leu-Gly-OEt (Bachem) is used as the primary screen to determine IC50 values for MMP inhibitors. A 100 μL reaction contains 1 mM 5,5′-dithiobis(2-nitrobenzoic acid) (DTNB), 100 μM substrate, 0.1% Brij, enzyme, and inhibitor in the appropriate reaction buffer. Activated full-length enzymes are assayed at 5 nM, Stromelysin Catalytic Domain (SCD) at 10 nM, and Gelatinase A Catalytic Domain (GaCD) at 1 nM. Inhibitors are screened from 100 μM to 1 nM. Full-length enzymes are assayed in 50 mM HEPES, 10 mM CaCl2, pH 7.0; SCD in 50 mM MES, 10 mM CaCl2, pH 6.0; and GaCD in 50 mM MOPS, 10 mM CaCl2, 10 μM ZnCl2, pH 7.0.

In series [2] the target is T1, MMP03 (SCD, stromelysin-1 catalytic domain) (Homo sapiens, UniProt P08254).
T1 construct: SCD (stromelysin-1 catalytic domain); made in house; host or cells: Escherichia coli
Put plainly: Thiopeptolide assay, stromelysin-1 catalytic domain (SCD). The settings on record: thiopeptolide substrate. It is filed as biochemical. How it is done: as §1, §2

The next series concerns the target T2, MMP07 (matrilysin) (Homo sapiens, UniProt P09237).
T2 construct: made in house; host or cells: E. coli
T2 sequence (P09237 95-267): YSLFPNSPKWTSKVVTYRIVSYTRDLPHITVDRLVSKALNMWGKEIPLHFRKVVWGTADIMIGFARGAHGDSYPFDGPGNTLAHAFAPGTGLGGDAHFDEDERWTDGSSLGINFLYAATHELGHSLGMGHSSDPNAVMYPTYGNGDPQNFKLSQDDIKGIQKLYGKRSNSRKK
The series can be described thus: Thiopeptolide assay, MMP07. It is filed as biochemical. The settings on record: thiopeptolide substrate. How it is done: as §1, §2

The target of another series is T3, MMP13 (collagenase-3) (Homo sapiens, UniProt P45452).
T3 construct: made in house
Put plainly: Thiopeptolide assay, MMP13. The series is classed as biochemical. The settings on record: thiopeptolide substrate. The protocol: as §1, §2

The next series concerns the target gelatinase A (Homo sapiens, UniProt P08253). The series can be described thus: Gelatin assay (gelatinase natural substrate assay) (Gel). The series is classed as biochemical. How it is done:
Gelatin Assay (Gelatinase Natural Substrate Assay) (Gel)
Rat tail Type I collagen (Sigma) is denatured by heating at 95° C. for 20 minutes to prepare the gelatin substrate. A 50 μL reaction contains 1.12 mg/mL substrate, enzyme, inhibitor, and 80 μg/mL soy bean trypsin inhibitor as an inert internal standard in 50 mM MOPS, 10 mM CaCl2, 10 μM ZnCl2, pH 7.0. Activated full-length gelatinase A is assayed at 1 nM and gelatinase A catalytic domain (GaCD) at 10 nM. Inhibitors are screened from 100 μM to 1 nM. The reactions are incubated at 37° C. for 30 minutes then stopped with 50 μL at 2× Tricine gel loading buffer (Novex). Reaction products are separated from undigested substrate by electrophoresis on Tricine-SDS 10-20% polyacrylamide gradient gels (Novex). Protein bands are stained with Coomassie Brilliant Blue R and quantified using a Bio Image densitometer (Millipore). IC50 values are calculated from the disappearance of substrate using the sum of the top three bands of each reaction after normalization with the internal standard.

Series [3] deals with T4, MMP01 (fibroblast collagenase) (Homo sapiens, UniProt P03956).
T4 construct: purchased Washington University School of Medicine, St. Louis, Mo
T4 sequence (P03956 100-469): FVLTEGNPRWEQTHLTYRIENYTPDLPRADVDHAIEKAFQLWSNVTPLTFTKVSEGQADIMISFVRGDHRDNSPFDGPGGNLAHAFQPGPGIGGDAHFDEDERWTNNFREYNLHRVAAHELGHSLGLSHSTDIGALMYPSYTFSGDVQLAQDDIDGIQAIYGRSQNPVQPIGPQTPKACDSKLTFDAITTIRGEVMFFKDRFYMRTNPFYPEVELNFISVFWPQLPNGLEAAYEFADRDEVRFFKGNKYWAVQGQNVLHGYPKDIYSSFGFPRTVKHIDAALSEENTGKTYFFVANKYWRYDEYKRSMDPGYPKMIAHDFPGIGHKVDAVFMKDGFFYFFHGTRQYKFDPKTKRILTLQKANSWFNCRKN
The series can be described thus: Thiopeptolide assay, MMP01. It is filed as biochemical. The settings on record: thiopeptolide substrate. The protocol:
as §1, §2

A short description of series [4]: MMP inhibitor bioassay (inhibitor plasma level after gavage). The series is classed as in vivo, rat. The settings on record: 50 mg/kg by gavage. The protocol:
Animals are dosed by gavage with either vehicle or compound at 2, 10, or 50 mg/kg. Blood samples are collected from 3 to 4 animals from each dosing group at 1, 2, 4, 6, and 24 hour postdose, centrifuged, and the plasma immediately frozen at −20° C. Plasma protein is precipitated with an equal volume of acetonitrile and separated by centrifugation at room temperature. The supernate is evaporated to dryness and reconstituted to the original plasma volume with 50 mM Tris, pH 7.6. Ten-fold serial dilutions of the reconstituted plasma samples are prepared in 50 mM Tris, pH 7.6 for dose response assays using the appropriate thiopeptolide assay. […] All control samples are subjected to acetonitrile precipitation and analyzed with the thiopeptolide assay.

Series [5] deals with T5, stromelysin catalytic domain (SCD) (Homo sapiens, UniProt P08254).
T5 construct: SCD (stromelysin-1 catalytic domain); made in house; host or cells: Escherichia coli
The series can be described thus: Soluble proteoglycan assay (stromelysin natural substrate assay) SCD (PG). It is filed as biochemical. The settings on record: solubilized proteoglycan substrate. The protocol:
Soluble Proteoglycan Assay (Stromelysin Natural Substrate Assay) SCD (PG)
Solubilized proteoglycan substrate is prepared from bovine cartilage powder (Sigma) using the method described by Nagase and Woessner in Anal. Biochem., 1980;107:385-392. A 100 μL reaction contains 10 μg/mL proteoglycan, enzyme, and inhibitor in 50 mM MES, 10 mM CaCl2, pH 6.0. Activated full-length stromelysin or stromelysin catalytic domain (SCD) is assayed at 100 nM. Inhibitors are screened from 100 μM to 1 nM. The reaction is incubated at 37° C. for 3 hours then stopped with the addition of 1,10-phenanthroline at a final concentration of 1 mM. Reaction products are separated from undigested substrate using ultrafree-MC polysulfone microcons with a 300,000 molecular weight cut-off membrane (Millipore) and quantified using a modified […] (DMB) assay described by Farndale, Sayers, and Barrett in Connective Tissue Research, 1982;9:247-248. Absorbance is measured at 518 nm using 32 μg/mL DMB in a 1 mL reaction. The standard curve is constructed from 0 to 100 μg shark cartilage chondroitin sulfate C (Sigma).

Where [6] appears, read: catalytic domain, read-out: (GCD) MMP02 IC50.
The mark [7] stands for this setting: catalytic domain, read-out: (SCD) MMP03 IC50.

Like-named read-outs stand apart in the source and are kept apart here.

Sequence of MMP02 (GCD, recombinant gelatinase A catalytic domain) (P08253 110-221 limits assumed): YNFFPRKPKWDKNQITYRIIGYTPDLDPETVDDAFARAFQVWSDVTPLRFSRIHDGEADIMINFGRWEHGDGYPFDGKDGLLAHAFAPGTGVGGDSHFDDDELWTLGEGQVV
Sequence of MMP02 (GCD, recombinant gelatinase A catalytic domain) (P08253 397-465 limits assumed): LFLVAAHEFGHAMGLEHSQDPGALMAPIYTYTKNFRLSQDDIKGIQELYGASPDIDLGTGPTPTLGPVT
T1 sequence (P08254 100-272 limits assumed): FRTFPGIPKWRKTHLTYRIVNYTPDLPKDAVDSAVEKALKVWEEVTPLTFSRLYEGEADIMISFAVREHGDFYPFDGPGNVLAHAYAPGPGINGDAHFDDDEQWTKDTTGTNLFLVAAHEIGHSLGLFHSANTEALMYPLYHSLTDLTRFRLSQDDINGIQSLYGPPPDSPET
T5 sequence (P08254 100-272 limits assumed): as above

Regarding `C[C@H](NS(=O)(=O)c1ccc2oc3ccccc3c2c1)C(=O)O` [Example 4, (L)-2-(Dibenzofuran-2-sulfonylamino)-propionic acid], the IC50 in [1] (setting [6]) stood at 1700 nM; in [2] (setting [7]), 5400 nM.
With `CCC(C)[C@H](NS(=O)(=O)c1ccc2oc3ccccc3c2c1)C(=O)O` (stereo partly shown) [Example 2, (L)-2-(Dibenzofuran-2-sulfonylamino)-3-methyl-pentanoic acid], the IC50 in [1] (setting [6]) was 2300 nM; in series [2] (setting [7]), 1500 nM.
`O=C(O)[C@H](CS)NS(=O)(=O)c1ccc2oc3ccccc3c2c1` [Example 9, (L)-2-(Dibenzofuran-2-sulfonylamino)-3-mercapto-propionic acid]: the IC50 in series [1] (setting [6]) came to 4500 nM.
In turn, `O=C(O)[C@H](Cc1ccccc1)NS(=O)(=O)c1ccc2oc3ccccc3c2c1` [Example 3, (L)-2-(Dibenzofuran-2-sulfonylamino)-3-phenyl-propionic acid] registered a melting point of 196 to 198 °C. Besides, the IC50 in [1] (setting [6]) amounted to 900 nM.
On to `CC(C)[C@H](NS(=O)(=O)c1ccc2sc3ccccc3c2c1)C(=O)O` [Example 14, (L)-2-(Dibenzothiophene-2-sulfonylamino)-3-methyl-butyric acid], for which the IC50 turned out to be 27000 nM on MMP07 (matrilysin), 2600 nM against MMP13 (collagenase-3), 610 nM in [1] (setting [6]) and 690 nM in [2] (setting [7]).
`O=C(O)C[C@H](NS(=O)(=O)c1ccc2oc3ccccc3c2c1)C(=O)O` [Example 7, (L)-2-(Dibenzofuran-2-sulfonylamino)-succinic acid] showed a melting point of 165 to 168 °C. Moreover, the IC50 in [1] (setting [6]) came out at 1200 nM. Also, the half-maximal inhibitory concentration (IC50) in [2] (setting [7]) stood at 1000 nM.
`CC(C)[C@H](NS(=O)(=O)c1ccc2oc3ccccc3c2c1)C(=O)O` [Example 5, (L)-2-(Dibenzofuran-2-sulfonylamino)-3-methyl-butyric acid] yielded a melting point of 163 to 165 °C. For the same compound, the IC50 on gelatinase A came out at 580 nM. For the same compound, half-maximal inhibition in series [3] (IC50) was put at 19000 nM. In addition, in series [4] (peak), the “Bioassay Peak (inhibitor plasma level)” value worked out at 82 µM. In addition, the concentration at 24 h in series [4] (rat, plasma, oral, 24 hours postdose) amounted to 180 nM. For the same compound, the IC50 in series [1] (Table 2, read-out: GCD (IC50)) worked out at 84 nM. For the same compound, the IC50 in series [1] (setting [6]) came to 84 nM. In addition, in series [5], the IC50 was found to be 8900 nM. For the same compound, in series [2] (Table 2, read-out: SCD (IC50)), the IC50 came to 233 nM.
The compound `O=C(O)CNS(=O)(=O)c1ccc2oc3ccccc3c2c1` [Example 6, (Dibenzofuran-2-sulfonylamino)-acetic acid] had a melting point of 208 to 210 °C. The IC50 in series [1] (setting [6]) was determined as 730 nM. Besides, the IC50 in series [2] (setting [7]) is 4800 nM.
Turning to `CC(C)[C@H](NS(=O)(=O)c1ccc2oc3cc(Br)ccc3c2c1)C(=O)O` [Example 16, (L)-2-(7-Bromo-dibenzofuran-2-sulfonylamino)-3-methyl-butyric acid], the values for the IC50 in [1] (setting [6]) and in series [2] (setting [7]) were 470 nM and 750 nM, respectively.
For the compound `CC(C)C[C@H](NS(=O)(=O)c1ccc2oc3ccccc3c2c1)C(=O)O` [Example 1, (L)-2-(Dibenzofuran-2-sulfonylamino)-4-methyl-pentanoic acid], the IC50 in [3] was 66000 nM; in series [1] (setting [6]) it was 320 nM.
Regarding `CCC(C)[C@H](NS(=O)(=O)c1ccc2oc3ccccc3c2c1)C(=O)NO` (stereo partly shown) [Example 10, (L)-2-(Dibenzofuran-2-sulfonylamino)-3-methyl-pentanoic acid hydroxyamide], in series [1] (setting [6]), the IC50 came out at 35000 nM.
In the case of `CC(C)[C@H](NS(=O)(=O)c1ccc2c(c1)oc1ccccc12)C(=O)O` [Example 11, (L)-2-(dibenzofuran-3-sulfonylamino)-3-methyl-butyric acid], the IC50 against MMP07 (matrilysin) came to 5000 nM; against MMP13 (collagenase-3), 47 nM; in series [3], 1800 nM; in [1] (setting [6]), 4.5 nM; in [2] (setting [7]) it was 15 nM.
With `CC(C)[C@H](NS(=O)(=O)c1ccc2oc3cc(-c4ccccc4)ccc3c2c1)C(=O)O` [Example 17, (L)-3-Methyl-2-(7-phenyl-dibenzofuran-2-sulfonylamino)-butyric acid], the IC50 against MMP07 (matrilysin) is 6000 nM; against MMP13 (collagenase-3), 690 nM; in series [1] (setting [6]) it was 360 nM; in series [2] (setting [7]), 62 nM.
As for `CC(C)[C@H](NS(=O)(=O)c1ccc2c(c1)Cc1ccccc1-2)C(=O)O` [Example 12, (L)-2-(9H-Fluorene-2-sulfonylamino)-3-methyl-butyric acid], the IC50 at MMP07 (matrilysin) is 10800 nM; against MMP13 (collagenase-3) it was 340 nM; in series [3] it was 32300 nM; in series [1] (setting [6]), 49 nM; in series [2] (setting [7]), 185 nM.
With `O=C(O)[C@H](CSC(c1ccccc1)(c1ccccc1)c1ccccc1)NS(=O)(=O)c1ccc2oc3ccccc3c2c1` [Example 8, (L)-2-(Dibenzofuran-2-sulfonylamino)-3-tritylsulfanyl-propionic acid], in series [1] (setting [6]), the IC50 was determined as 9400 nM.

In general, IC50 refers to the concentration needed to halve the response being measured. The term melting point denotes the temperature, or range, at which the solid turns liquid.

The record behind these values is patent US6906092B2, “Method of inhibiting matrix metalloproteinases” (Warner-Lambert Company, priority 1996, dated 2005).
